The values that follow come from paper PMC4188773 (Cell calcium, 2014).

≈ marks a conversion by molar mass, not a printed value. Where “and” joins values, the source holds several entries; their conditions need not be identical. Identical values can stand only once. Entries after “also recorded” stand apart in the source; their conditions may differ. Like-named read-outs stand apart in the source and are kept apart here.

The test system of one data set is mOR-EG. Particulars: incubation at least 15 min; ref [22]; cited from earlier work.
The conditions of data set [1]: pH7; source not stated; cited from earlier work.
Data set [2] addresses T1, mouse eugenol OR (mOR-EG) (Mus musculus, UniProt Q920P2).
T1 sequence (Q920P2 1-313): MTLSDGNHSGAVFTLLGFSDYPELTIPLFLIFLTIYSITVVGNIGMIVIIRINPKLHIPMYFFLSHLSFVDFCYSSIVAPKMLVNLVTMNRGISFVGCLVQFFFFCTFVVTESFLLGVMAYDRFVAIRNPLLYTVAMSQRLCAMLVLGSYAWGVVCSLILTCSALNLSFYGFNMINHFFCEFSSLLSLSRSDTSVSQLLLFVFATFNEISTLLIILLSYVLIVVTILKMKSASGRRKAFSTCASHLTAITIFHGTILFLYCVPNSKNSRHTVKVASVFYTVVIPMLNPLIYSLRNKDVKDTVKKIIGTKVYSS
The experiment in a line: dual read-out assay, mOR-EG/PLC and mOR-EG/AC responses compared. The data set is classed as cell-based. Particulars: for functional bias between PLC and AC pathways (in words): pair-wise comparison of EC50 values.

For data set [3] the following is noted: source not stated; cited from earlier work.
The target in data set [4] is T1, mouse eugenol OR (mOR-EG). The data set can be described thus: mOR-EG/AC Ca2+ imaging: mOR-EG + Gαolf + CNGC-camp in HEK293T cells. In kind it is cell-based. Particulars: for decay time 90% to 10%, AC-dependent Ca2+ response / time of peak, AC-dependent Ca2+ response / time to rise 10% to 90%, AC-dependent Ca2+ response: saturating response parameters.
Data set [5] addresses T1, mouse eugenol OR (mOR-EG). The data set can be described thus: mOR-EG/PLC Ca2+ imaging: mOR-EG + Gα15 in HEK293T cells. In kind it is cell-based. Particulars: for decay time 90% to 10%, PLC-dependent Ca2+ response / time of peak, PLC-dependent Ca2+ response / time to rise 10% to 90%, PLC-dependent Ca2+ response: saturating response parameters.
The next data set concerns adenylate cyclase. The experiment in a line: forskolin-induced Ca2+ influx in mOR-EG/Gαs.
A further data set deals with HEK293T cells. The data set can be described thus: control HEK293T cells lacking components of the read-out. The data set is classed as cell-based. Conditions: for Ca2+ response in cells expressing mOR-EG and Gαolf without CNGC-camp: eugenol 0.5-2mM, forskolin 20μM, n>500.
The target in data set [6] is T1, mouse eugenol OR (mOR-EG). The data set is classed as cell-based. Conditions: up to 1 mM.
The next data set deals with AgOR65+AgOrco. The experiment in a line: Ca2+ response of HEK293T cells expressing mosquito OR AgOR65+AgOrco. The data set is classed as cell-based, A. gambiae. Conditions: 1μM, 5-s stimulation.
The target of data set [7] is T1, mouse eugenol OR (mOR-EG). The data set can be described thus: mOR-EG/PLC Ca2+ response in MMDD1 macula densa cells. Conditions: range and mean. The data set is classed as cell-based.
A further data set has as its system CNGC-camp. The experiment in a line: stimulation of endogenous purinergic Gαq pathway, CNGC-camp read-out. In kind it is cell-based, rat. Particulars: 100μM, saturating.
Where [8] appears, read: 100μM, range over cells and mean±SEM.
[9] abbreviates: cumulative concentration-dependence.

Usually solubility stands for the concentration that dissolves in the medium under given conditions. Regarding `C/C=C/c1ccc(OC)c(OC)c1` [methyl isoeugenol], the “agonist activity in cAMP-dependent Cre reporter assay” value in the data set on mOR-EG was “strong agonist”. Moreover, in data set [1], the solubility is 3.6/3.05 mmol/l. For the same molecule, in [2] (1mM with 100 μM eugenol, both mOR-EG/Gα15 and mOR-EG/Gαs(olf) cells), the “antagonism of eugenol-evoked Ca2+ response” value is “completely eliminated Ca^2+ response; also recorded: potent antagonist that inhibits eugenol activation of both the mOR-EG/PLC and mOR-EG/AC responses”. In addition, the “AC-/PLC- mediated Ca2+ response (result in words)” value in data set [2] (both read-outs, up to 1-5 mM) is reported as “failed to activate any response; also recorded: did not evoke any appreciable Ca^2+ signal; also recorded: does not activate either pathway; also recorded: non agonist, antagonist”. Moreover, in data set [2] (data not shown), the “response to prolonged application” value is recorded as “did not evoke any measurable response”.
The logP is a log measure of how a compound divides between an organic and an aqueous phase. In general, EC50 refers to the midpoint of the concentration-response curve. For `C=CCc1ccc(OC)c(OC)c1` [methyl eugenol], the solubility in data set [1] was 4.3 mmol/L (≈ 766 µg/mL). Further, the logP in data set [3] is reported as 2.7. In data set [4], the EC50 turned out to be 177 ± 11 µM; the “decay time 90% to 10%, AC-dependent Ca2+ response” value turned out to be 101.2 ± 6 s; the “time of peak, AC-dependent Ca2+ response” value is 92 ± 3 s; the “time to rise 10% to 90%, AC-dependent Ca2+ response” value amounted to 41.6 ± 2.2 s. In addition, in data set [5], the EC50 was 165 µM; the “decay time 90% to 10%, PLC-dependent Ca2+ response” value is 39.8 ± 2.3 s; the “time of peak, PLC-dependent Ca2+ response” value came out at 19.8 ± 1.2 s; the “time to rise 10% to 90%, PLC-dependent Ca2+ response” value turned out to be 5.4 ± 0.6 s. The “functional bias between PLC and AC pathways (in words)” value in data set [2] was “activated both pathways with similar EC50 values”.
As for `C=CCc1ccc(OC(C)=O)c(OC)c1` [acetyl eugenol], in data set [1], the solubility is 1.4 mmol/L (≈ 289 µg/mL). Moreover, the logP in data set [3] is listed as 2.7. Further, in [4], the EC50 turned out to be 373 ± 49 µM; the “decay time 90% to 10%, AC-dependent Ca2+ response” value turned out to be 125.5 ± 5.1 s; the “time of peak, AC-dependent Ca2+ response” value is 90.8 ± 3.4 s; the “time to rise 10% to 90%, AC-dependent Ca2+ response” value turned out to be 27.6 ± 1.7 s. For the same molecule, in [5], the EC50 is 348 µM; the “decay time 90% to 10%, PLC-dependent Ca2+ response” value is 44 ± 1 s; the “time of peak, PLC-dependent Ca2+ response” value came to 19.6 ± 0.9 s; the “time to rise 10% to 90%, PLC-dependent Ca2+ response” value worked out at 7.7 ± 0.4 s. Besides, the “functional bias between PLC and AC pathways (in words)” value in [2] was “activated both pathways with similar EC50 values”.
Consider `C=C[C@@]1(C)CC(=O)[C@]2(O)[C@@]3(C)[C@@H](O)CCC(C)(C)[C@@H]3[C@H](O)[C@H](OC(C)=O)[C@@]2(C)O1` [forskolin], for which the “Trise of Ca2+ influx on re-addition of 2 mM Ca2+” value with adenylate cyclase (10μM forskolin applied in 0-Ca2+, Ca2+ added 60 s after stimulation (Fig.3F)) was 24.3 ± 3.1 s. For the same molecule, the “effect on Ca2+ concentration” value in the data set on adenylate cyclase (10 μM, 5 sec pulse, mOR-EG/Gαs(olf) cells) is recorded as “increased the Ca^2+ concentration”. For the same molecule, the “Trise of response to forskolin” value in the data set on adenylate cyclase (10μM, extracellular Ca2+ present (Fig.3E)) was 76.7 ± 5.7 s. For the same molecule, the “Ca2+ response in cells expressing mOR-EG and Gαolf without CNGC-camp” value with HEK293T cells is recorded as “did not generate noticeable Ca^2+ responses”.
isoeugenol: the “normalized peak magnitude, mOR-EG/AC response” value in [4] (normalized to eugenol) is given as 0.14±0.11. In data set [4], the “decay time 90% to 10%, AC-dependent Ca2+ response” value came out at 104 ± 4.8 s; the “time of peak, AC-dependent Ca2+ response” value is 95.3 ± 4.8 s; the “time to rise 10% to 90%, AC-dependent Ca2+ response” value came out at 36.7 ± 2.7 s. Moreover, in [5] (normalized to eugenol), the “normalized peak magnitude, mOR-EG/PLC response” value is listed as 0.38±0.03. In addition, in data set [5], the “decay time 90% to 10%, PLC-dependent Ca2+ response” value was found to be 54.5 ± 2.6 s; the “time of peak, PLC-dependent Ca2+ response” value was 37.1 ± 3.5 s; the “time to rise 10% to 90%, PLC-dependent Ca2+ response” value was found to be 14.8 ± 1.6 s. In addition, the “slow Gαs(olf)-dependent response in dual-response cells” value (from here on “slow Gαs(olf)-dependent response”) in [6] is listed as “failed to evoke noticeable Gαs(olf)-dependent Ca^2+ signal”. Also, in [6] (listed as Isoeugenol), the “slow Gαs(olf)-dependent response” value was “not able to evoke a slow Gαs(olf)-dependent response”. The “functional bias between PLC and AC pathways (in words)” value in [2] is “biased activation of the PLC pathway”. Besides, in data set [2] (ratio of EC50 values), the “potency in mOR-EG/PLC signaling in comparison to mOR-EG/AC signaling” value was ~ 8 fold.
Turning to `C=CCc1ccc(O)c(OC)c1` [eugenol], the “response kinetics vs mOR-EG responses” value in the data set with AgOR65+AgOrco is given as “much faster response”. In addition, the “Tpeak, mOR-EG/PLC response” value in data set [7] stood at 13 ± 0.8 s. Moreover, in [4], the EC50 turned out to be 53 ± 11 µM; the “decay time 90% to 10%, AC-dependent Ca2+ response” value came to 128.2 ± 4.9 s; the “time of peak, AC-dependent Ca2+ response” value stood at 90.5 ± 4.4 s; the “time to rise 10% to 90%, AC-dependent Ca2+ response” value was found to be 39.4 ± 2.2 s. In data set [4] (setting [8]), the “Tdecay, mOR-EG/AC response” value is 102 ± 11 s and 101.9 ± 10.9 s; the “Tpeak, mOR-EG/AC response” value is 76 ± 6 s and 75.9 ± 6.1 s; the “Trise, mOR-EG/AC response” value is 32 ± 3 s and 32.2 ± 3.0 s. For the same molecule, in data set [4] (1mM), the “Ca2+ response on removal of extracellular Ca2+, mOR-EG/Gαs(olf) cells” value is “completely abolished the response”. For the same molecule, in data set [4] (5mM), the “Tdecay, mOR-EG/AC response” value amounted to 125.1 ± 4.9 s; the “Tpeak, mOR-EG/AC response” value was 90.5 ± 2.9 s; the “Trise, mOR-EG/AC response” value was determined as 38.5 ± 1.5 s. Also, the “Hill coefficient, mOR-EG/AC response” value in data set [4] (setting [9]) turned out to be 0.97. In data set [5] (25μM), the “Tdecay, mOR-EG/PLC response” value came to 35.0 ± 0.8 s; the “Tpeak, mOR-EG/PLC response” value amounted to 18.6 ± 0.8 s; the “Trise, mOR-EG/PLC response” value was 10.8 ± 0.9 s. In addition, in data set [5] (setting [8]), the “Tdecay, mOR-EG/PLC response” value amounted to 49.4 ± 1.8 s; the “Tpeak, mOR-EG/PLC response” value was 31.5 ± 0.7 s; the “Trise, mOR-EG/PLC response” value was determined as 8.4 ± 0.3 s. Besides, the “Tpeak, mOR-EG/PLC response” value in [5] (1mM) is 15.4 ± 0.4 s. Also, in data set [5] (1mM, 5-s pulse), the “Ca2+ response on removal of extracellular Ca2+, mOR-EG/Gα15 cells” value is given as “otherwise not affecting the Ca^2+ response”. Moreover, in data set [5] (5mM), the “Tdecay, mOR-EG/PLC response” value worked out at 57.9 ± 3.8 s and the “Trise, mOR-EG/PLC response” value was found to be 5.6 ± 0.3 s. The “Hill coefficient, mOR-EG/PLC response” value in [5] (setting [9]) amounted to 1.2. Moreover, in data set [5], the “decay time 90% to 10%, PLC-dependent Ca2+ response” value was determined as 52.6 ± 1.1 s; the “time of peak, PLC-dependent Ca2+ response” value amounted to 15.4 ± 0.4 s; the “time to rise 10% to 90%, PLC-dependent Ca2+ response” value was 7.6 ± 0.2 s. Also, the “slow Gαs(olf)-dependent response” value in [6] is “obvious in the signal evoked by eugenol”. Further, the “Ca2+ response in untransfected cells or cells expressing mOR-EG alone” value with HEK293T cells (0.5-5mM, n>1000) is recorded as “Neither untransfected HEK293T cells nor cells expressing mOR-EG alone were sensitive”. The “Ca2+ response in cells expressing mOR-EG and Gαolf without CNGC-camp” value in the data set on HEK293T cells is “did not generate noticeable Ca^2+ responses”. In addition, the “functional bias between PLC and AC pathways (in words)” value in data set [2] is on record as “activated both pathways with similar EC50 values”.
Regarding `Nc1ncnc2c1ncn2[C@@H]1O[C@H](COP(=O)(O)OP(=O)(O)OP(=O)(O)O)[C@@H](O)[C@H]1O` [ATP], the “activation of CNGC-camp” value in the data set with CNGC-camp was “did not induce appreciable activation of CNGC-camp”.
